Measurements reported in patent US20040014637A1, “Mechanism for the inactivation of insulin receptor and uses in the treatment of type II diabetes” (McGill University, priority 1998, published 2004).

How the values were obtained:
insulin receptor = molecular target: T1, insulin receptor (Rattus norvegicus, UniProt P15127); test: 125I-insulin binding after preincubating endosomes (ENs containing IR) with nucleotides; conditions: Table 2; addition 10 mM, 37° C. 15 min; normalized to endosomes without nucleotide
T1 construct: from tissue; host or cells: rat liver; endosome (EN) and plasma membrane (PM) fractions
Method: Rats were anaesthetized with ether and were injected via jugular vein with a dose (per 100 g body weight) of insulin (1.5 μg), or bpV(phen) (0.6 μmol), dissolved in 0.2 ml. phosphate buffered saline (pH 7.4) −0.1% BSA. […] Livers were rapidly excised, placed in ice-cold homogenizing buffer (50 mM HEPES (pH 7.4), 0.25 M sucrose, 1 mM PMSF, 1 MM MgCl2, 1 mM benzamidine) and minced before homogenization. […] These subcellular fractions have been characterized in detail both morphologically and biochemically.
After 10 min at room temperature, the reactions was terminated by spotting 50 μl aliquots on Whatman 3 MM filters.
In the present study we wished to assess whether other processes might be involved in reducing the association of intraendosomal insulin with its receptor. We examined the effect of incubating intact ENs containing IR with increasing concentrations of ATP on subsequently measured insulin and hGH binding in both solubilized and WGA-purified receptors.

[1] = molecular target: T2, insulin receptor kinase (IRK) (Rattus norvegicus, UniProt P15127); test: Insulin receptor kinase (IRK) exogenous tyrosine kinase activity, Poly (Glu:Tyr) (4:1) substrate, WGA-purified IRK from preincubated cell fractions; assay type: biochemical
T2 construct: from tissue; host or cells: rat liver; endosome (EN) and plasma membrane (PM) fractions

[2] = molecular target: T3, insulin receptor kinase (IRK) β-subunit (Rattus norvegicus, UniProt P15127); test: IRK β-subunit phosphotyrosine content (αPY immunoblot of WGA eluates); assay type: biochemical
T3 construct: from tissue; host or cells: rat liver; endosome (EN) and plasma membrane (PM) fractions
Method: The phosphotyrosine content of endosomal IRs (ENs containing IR) was determined by subjecting lectin column (WGA-Sepharose™)-purified preparations to SDS-PAGE and immunoblotting with α960 and αPY (Faure et al. (1992) J. Biol. Chem. 267, 11215-11221). […] FIG. 1B illustrates the effect of ATP on β subunit phosphotyrosine content. WGA eluates (5 μg protein) were subjected to SDS-PAGE in 7.5% gels followed by transfer of proteins to Immobilon-P membranes. Membranes were probed with αPY or α960 antibodies followed by incubation with ^125I-GAR as second antibody and exposed for autoradiography.

[3] = treatment of Type II diabetic patients; cited from earlier work
[4] = system: intraendosomal insulin degradation; conditions: cited from earlier work

T2 sequence (P15127 27-759 limits assumed): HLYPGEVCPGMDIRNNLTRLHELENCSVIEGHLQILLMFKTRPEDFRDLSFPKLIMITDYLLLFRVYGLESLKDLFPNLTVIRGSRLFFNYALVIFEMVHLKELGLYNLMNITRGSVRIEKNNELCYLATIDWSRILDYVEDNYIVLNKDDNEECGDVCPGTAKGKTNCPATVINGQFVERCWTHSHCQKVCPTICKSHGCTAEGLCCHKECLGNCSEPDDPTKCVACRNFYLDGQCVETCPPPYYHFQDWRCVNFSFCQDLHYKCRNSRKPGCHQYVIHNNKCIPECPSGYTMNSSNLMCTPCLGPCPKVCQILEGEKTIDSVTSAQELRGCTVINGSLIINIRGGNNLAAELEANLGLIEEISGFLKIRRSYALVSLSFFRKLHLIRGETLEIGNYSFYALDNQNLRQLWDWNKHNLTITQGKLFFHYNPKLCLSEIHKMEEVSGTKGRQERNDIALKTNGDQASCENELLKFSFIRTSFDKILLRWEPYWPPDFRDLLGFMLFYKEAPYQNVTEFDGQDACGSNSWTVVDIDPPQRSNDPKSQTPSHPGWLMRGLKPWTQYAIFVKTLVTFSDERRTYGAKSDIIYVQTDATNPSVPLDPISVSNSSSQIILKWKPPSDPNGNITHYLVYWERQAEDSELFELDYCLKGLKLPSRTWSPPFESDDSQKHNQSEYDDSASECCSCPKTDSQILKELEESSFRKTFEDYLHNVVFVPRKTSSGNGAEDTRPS
T2 sequence (P15127 764-1383 limits assumed): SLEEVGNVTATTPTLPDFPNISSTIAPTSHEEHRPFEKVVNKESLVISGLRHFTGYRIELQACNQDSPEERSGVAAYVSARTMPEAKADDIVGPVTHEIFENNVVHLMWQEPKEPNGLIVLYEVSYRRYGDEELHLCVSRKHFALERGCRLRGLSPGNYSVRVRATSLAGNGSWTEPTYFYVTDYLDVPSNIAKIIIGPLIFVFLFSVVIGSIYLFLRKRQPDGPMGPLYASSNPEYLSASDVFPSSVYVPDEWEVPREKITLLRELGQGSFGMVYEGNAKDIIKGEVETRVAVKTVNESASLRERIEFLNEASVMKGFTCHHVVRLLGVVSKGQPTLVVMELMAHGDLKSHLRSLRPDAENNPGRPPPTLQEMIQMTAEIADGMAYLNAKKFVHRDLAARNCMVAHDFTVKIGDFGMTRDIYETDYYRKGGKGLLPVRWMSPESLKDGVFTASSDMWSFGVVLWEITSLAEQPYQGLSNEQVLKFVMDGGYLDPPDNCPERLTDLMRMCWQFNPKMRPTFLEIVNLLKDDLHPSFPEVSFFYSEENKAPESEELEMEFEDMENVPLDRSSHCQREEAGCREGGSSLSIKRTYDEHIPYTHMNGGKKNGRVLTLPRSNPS
T1 sequence (P15127 27-759 limits assumed): as the sequence (P15127 27-759 limits assumed) above
T1 sequence (P15127 764-1383 limits assumed): as the sequence (P15127 764-1383 limits assumed) above
T3 sequence (P15127 27-759 limits assumed): as the sequence (P15127 27-759 limits assumed) above
T3 sequence (P15127 764-1383 limits assumed): as the sequence (P15127 764-1383 limits assumed) above

Nc1ncnc2c1ncn2[C@@H]1O[C@H](COP(=O)(O)OP(=O)(O)O)[C@@H](O)[C@H]1O [ADP]
125I-Insulin specific binding (%), Solubilized endosomes (insulin receptor): 96.3 ± 6.4% | 125I-Insulin specific binding (%), WGA-purified endosomes (insulin receptor): 82.7 ± 5.2%

Nc1ncnc2c1ncn2[C@@H]1O[C@H](COP(=O)(O)OP(=O)(O)CP(=O)(O)O)[C@@H](O)[C@H]1O [AMP—P—C—P]
Effect on level of IRK activity (FIG. 2) ([1]; 5 mM AMP-P-C-P, in the presence or absence of 1 mM ATP): no effect | 125I-Insulin specific binding (%), Solubilized endosomes (insulin receptor): 109.1 ± 0.9% | 125I-Insulin specific binding (%), WGA-purified endosomes (insulin receptor): 95.1 ± 2.0%

Nc1ncnc2c1ncn2[C@@H]1O[C@H](COP(=O)(O)OP(=O)(O)NP(=O)(O)O)[C@@H](O)[C@H]1O [AMP—P—N—P]
125I-Insulin specific binding (%), Solubilized endosomes (insulin receptor): 112.2 ± 2.8% | 125I-Insulin specific binding (%), WGA-purified endosomes (insulin receptor): 99.1 ± 1.0%

Nc1ncnc2c1ncn2[C@@H]1O[C@H](CO)[C@@H](O)[C@H]1O [Adenosine, adenosine]
125I-Insulin specific binding (%), Solubilized endosomes (insulin receptor): 94.5 ± 4.1% | 125I-Insulin specific binding (%), WGA-purified endosomes (insulin receptor): 105.9 ± 3.3%

CO/C1=C\C(C)=C\[C@@H](C)[C@@H](O)[C@@H](C)C/C(C)=C/C=C/[C@H](OC)[C@@H]([C@@H](C)[C@@H](O)[C@H](C)[C@@]2(O)C[C@@H](O)[C@H](C)[C@@H](C(C)C)O2)OC1=O [Bafilomycin A1]
Effect on ability of ATP to reduce IRK activation (FIG. 4A) ([1]; 1 μM Bafilomycin A1 preincubation 30 min 37° C., then 5 and 10 mM ATP 15 min): marked attenuation | Effect on inhibition of IRK tyrosine phosphorylation and activity by 5 mM ATP ([1]; ENs containing IR incubated with 5 mM ATP): completely reversed | IRK activity in ENs after preincubation, before ATP additions ([1]; preincubation with 1 μM Bafilomycin A1, 30 min 37° C. (without: 1.3)): 1.4 pmol/10 min/10 fmol insulin binding | Level of IRK tyrosine phosphorylation at 5 mM ATP (FIG. 4B) ([2]; in the presence of Bafilomycin (1 μM), 5 mM ATP): comparable to that observed at 1 mM ATP

O=P([O-])([O-])OP(=O)([O-])[O-].[Na+].[Na+].[Na+].[Na+] [NaPiPi, sodium pyrophosphate]
125I-Insulin specific binding (%), WGA-purified endosomes (insulin receptor): 97.8 ± 2.3%

O.O.O.OO.OO.[K+].[OH-].[V].c1cnc2c(c1)ccc1cccnc12 [bpV(phen)]
Effect on suppression of IRK activity by 5 mM ATP (FIG. 6A) ([1]; coincubation of ENs with 0.1 mM bpV(phen)): did not prevent | IRK activity of ENs isolated from pretreated rats ([1]; rats given bpV(phen) 0.6 μmol/100 g body weight i.v., ENs at 15 min): augmented IRK activity | Effect on reduction in β-subunit tyrosine phosphorylation by 5 mM ATP (FIG. 6B) ([2]; bpV(phen) 0.1 mM in vitro or rats pretreated): did not influence the reduction

CCN(CC)CCCC(C)Nc1ccnc2cc(Cl)ccc12 (stereo not shown) [chloroquine]
Glucose metabolism in Type II diabetic patients [3]: improve glucose metabolism | Intraendosomal insulin degradation [4]: inhibits intraendosomal insulin degradation
